Type in all cases: functional, cell-based
The subject of experiment [1] is SK-OV-3. The experiment can be described thus: The compound was tested for cytotoxic potency against SKOV-3 human tumor cell lines.
The test system of experiment [2] is A2780. The experiment can be described thus: The compound was tested for cytotoxic potency against A2780 human tumor cell lines.
The subject of experiment [3] is CH1. The experiment can be described thus: The compound was tested for cytotoxic potency against CH1 human tumor cell lines.
The test system of experiment [4] is A2780. The experiment can be described thus: The compound was tested for cytotoxic potency against A2780R human tumor cell lines.
In experiment [5] the test system is A2780. Kind of experiment: The compound was tested for cytotoxic potency against A2780 human tumor cell lines.

On to `N=C(NCC1CC1)c1ccc(-c2ccc(-c3ccc(C(=N)NCC4CC4)cc3)o2)cc1`, for which the IC50 was determined as 56 µM in experiment [1]; 36 µM in experiment [2] (Homo sapiens, A2780); 15 µM in experiment [3] (Homo sapiens, CH1); 13 µM in experiment [4] (Homo sapiens, A2780).

With `N=C(NC1CCCCC1)c1ccc(-c2ccc(-c3ccc(C(=N)NC4CCCCC4)cc3)o2)cc1`, the IC50 in experiment [1] was 5.2 µM; in experiment [2] (Homo sapiens, A2780), 4.8 µM; in experiment [3] (Homo sapiens, CH1), 2.1 µM; in experiment [4] (Homo sapiens, A2780) it was 2.5 µM.

On to `CC(C)CNC(=N)c1ccc(-c2ccc(-c3ccc(C(=N)NCC(C)C)cc3)o2)cc1`, for which the half-inhibitory concentration (IC50) was determined as 52 µM in experiment [1]; 22.5 µM in experiment [2] (Homo sapiens, A2780); 9 µM in experiment [3] (Homo sapiens, CH1); 12 µM in experiment [4] (Homo sapiens, A2780).

As for `CC(C)NC(=N)c1ccc(-c2ccc(-c3ccc(C(=N)NC(C)C)cc3)o2)cc1`, the IC50 in experiment [1] worked out at 20.5 µM; in experiment [2] (Homo sapiens, A2780), 38 µM; in experiment [3] (Homo sapiens, CH1), 44.5 µM; in experiment [4] (Homo sapiens, A2780), 6.4 µM.

Consider `N=C(NC1CCCC1)c1ccc(-c2ccc(-c3ccc(C(=N)NC4CCCC4)cc3)o2)cc1`, for which the IC50 was 17 µM in experiment [1]; 12 µM in experiment [2] (Homo sapiens, A2780); 3.6 µM in experiment [3] (Homo sapiens, CH1); 3.8 µM in experiment [4] (Homo sapiens, A2780).

In the case of `CCC(CC)NC(=N)c1ccc(-c2ccc(-c3ccc(C(=N)NC(CC)CC)cc3)o2)cc1`, the IC50 in experiment [1] amounted to 31 µM; in experiment [2] (Homo sapiens, A2780), 32.5 µM; in experiment [3] (Homo sapiens, CH1) it was 16 µM; in experiment [4] (Homo sapiens, A2780), 7.1 µM.

As for `N=C(NC1CCC1)c1ccc(-c2ccc(-c3ccc(C(=N)NC4CCC4)cc3)o2)cc1`, the IC50 in experiment [1] was 25 µM; in experiment [2] (Homo sapiens, A2780) it was 11 µM; in experiment [3] (Homo sapiens, CH1), 4.2 µM; in experiment [4] (Homo sapiens, A2780), 3.3 µM.

Consider `N=C(NC1CC1)c1ccc(-c2ccc(-c3ccc(C(=N)NC4CC4)cc3)o2)cc1`, for which the IC50 in experiment [1] was 48 µM; in experiment [2] (Homo sapiens, A2780), 37 µM; in experiment [3] (Homo sapiens, CH1) it was 18 µM; in experiment [4] (Homo sapiens, A2780) it was 15.5 µM.

As for `N=C(N)c1ccc(-c2ccc(-c3ccc(C(=N)N)cc3)o2)cc1` [FURAMIDINE], the IC50 in experiment [1] was determined as 42.5 µM; in experiment [5], 46 µM; in experiment [3] (Homo sapiens, CH1), 46.5 µM; in experiment [4] (Homo sapiens, A2780), 15.5 µM.

Take CISPLATIN: the IC50 amounted to 0.3 µM in experiment [2] (a2780), 0.1 µM in experiment [3] (ch1) and 3.3 µM in experiment [4] (a2780).

These data come from ChEMBL document CHEMBL1130308, “Cytotoxicity of bis(phenylamidinium)furan alkyl derivatives in human tumour cell lines: Relation to DNA minor groove binding” (Bioorg Med Chem Lett, 1997).
